ChEMBL document CHEMBL3885881, “DrugMatrix”

Species on record: Rattus norvegicus
Assay: DrugMatrix - Regimen: Daily Repeat
Assay type: toxicity, organism-based, Sprague-Dawley
Parameters: regimen Daily Repeat, gender Male, age 6-8 weeks
Details: in vivo, po, 800 mg/kg, route oral GAVAGE, dose level High, vehicle .5 % CMC; for BASOPHIL / EOSINOPHIL / ERYTHROCYTE COUNT / HEMATOCRIT / HEMOGLOBIN / LEUKOCYTE COUNT / LYMPHOCYTE / MEAN CORPUSCULAR HEMOGLOBIN / MEAN CORPUSCULAR HEMOGLOBIN CONCENTRATION / MEAN CORPUSCULAR VOLUME / MONOCYTE / NEUTROPHIL / PLATELET COUNT: tissue Blood; for ALANINE AMINOTRANSFERASE / ALBUMIN / ALKALINE PHOSPHATASE / ASPARTATE AMINOTRANSFERASE / BLOOD UREA NITROGEN / CARBON DIOXIDE / CHLORIDE / CHOLESTEROL / CREATINE PHOSPHOKINASE / CREATININE / GLUCOSE / LACTATE DEHYDROGENASE / LIPASE / PHOSPHORUS / POTASSIUM / SODIUM / TOTAL BILIRUBIN / TOTAL PROTEIN / URIC ACID: tissue Plasma

`Oc1ccc(O)cc1` [HYDROQUINONE] was tested, and the BASOPHIL (72 h, time 3 day) was 0.25%, the EOSINOPHIL (72 h, time 3 day) was 0.45% and the “ERYTHROCYTE COUNT” value (72 h, time 3 day) was 6.72 x10E6/uL. For the same molecule, the HEMATOCRIT (72 h, time 3 day) was 44.05%, the HEMOGLOBIN (72 h, time 3 day) was 14.5 G/DL and the “LEUKOCYTE COUNT” value (72 h, time 3 day) was 7.7 x10E3/uL. For the same molecule, the LYMPHOCYTE (72 h, time 3 day) was 89.1%, the “MEAN CORPUSCULAR HEMOGLOBIN” value (72 h, time 3 day) was 21.6 pg and the “MEAN CORPUSCULAR HEMOGLOBIN CONCENTRATION” value (72 h, time 3 day) was 32.9 G/DL. For the same molecule, the “MEAN CORPUSCULAR VOLUME” value (72 h, time 3 day) was 65.5 fL, the MONOCYTE (72 h, time 3 day) was 1.5% and the NEUTROPHIL (72 h, time 3 day) was 7.45%. For the same molecule, the “PLATELET COUNT” value (72 h, time 3 day) was 1149.5 x10E3/uL, the “ALANINE AMINOTRANSFERASE” value (72 h, time 3 day) was 48 u/L and the ALBUMIN (72 h, time 3 day) was 4.2 G/DL. The “ALKALINE PHOSPHATASE” value (72 h, time 3 day) was 309.5 u/L, the “ASPARTATE AMINOTRANSFERASE” value (72 h, time 3 day) was 52 u/L and the “BLOOD UREA NITROGEN” value (72 h, time 3 day) was 15.5 mg/dL. For the same molecule, the “CARBON DIOXIDE” value (72 h, time 3 day) was 23 mmol/L, the CHLORIDE (72 h, time 3 day) was 107.5 MEQ/L and the CHOLESTEROL (72 h, time 3 day) was 80.5 mg/dL. For the same molecule, the “CREATINE PHOSPHOKINASE” value (72 h, time 3 day) was 183 u/L, the CREATININE (72 h, time 3 day) was 0.45 mg/dL and the GLUCOSE (72 h, time 3 day) was 164 mg/dL. The “LACTATE DEHYDROGENASE” value (72 h, time 3 day) was 102 u/L, the LIPASE (72 h, time 3 day) was 23.5 u/L and the PHOSPHORUS (72 h, time 3 day) was 13.75 mg/dL. The POTASSIUM (72 h, time 3 day) was 6.4 MEQ/L, the SODIUM (72 h, time 3 day) was 150 MEQ/L and the “TOTAL BILIRUBIN” value (72 h, time 3 day) was 0.3 mg/dL. For the same molecule, the “TOTAL PROTEIN” value (72 h, time 3 day) was 6.5 G/DL, the “URIC ACID” value (72 h, time 3 day) was 2.25 mg/dL and the BASOPHIL (120 h, time 5 day) was 0.2%. For the same molecule, the EOSINOPHIL (120 h, time 5 day) was 0.3%, the “ERYTHROCYTE COUNT” value (120 h, time 5 day) was 6.45 x10E6/uL and the HEMATOCRIT (120 h, time 5 day) was 41.5%. For the same molecule, the HEMOGLOBIN (120 h, time 5 day) was 13.7 G/DL, the “LEUKOCYTE COUNT” value (120 h, time 5 day) was 10.53 x10E3/uL and the LYMPHOCYTE (120 h, time 5 day) was 89%. The “MEAN CORPUSCULAR HEMOGLOBIN” value (120 h, time 5 day) was 21.3 pg, the “MEAN CORPUSCULAR HEMOGLOBIN CONCENTRATION” value (120 h, time 5 day) was 33.1 G/DL and the “MEAN CORPUSCULAR VOLUME” value (120 h, time 5 day) was 64.4 fL. For the same molecule, the MONOCYTE (120 h, time 5 day) was 1.6%, the NEUTROPHIL (120 h, time 5 day) was 6.2% and the “PLATELET COUNT” value (120 h, time 5 day) was 1513 x10E3/uL. For the same molecule, the “ALANINE AMINOTRANSFERASE” value (120 h, time 5 day) was 36.5 u/L, the ALBUMIN (120 h, time 5 day) was 4.2 G/DL and the “ALKALINE PHOSPHATASE” value (120 h, time 5 day) was 411 u/L. The “ASPARTATE AMINOTRANSFERASE” value (120 h, time 5 day) was 55 u/L, the “BLOOD UREA NITROGEN” value (120 h, time 5 day) was 15.5 mg/dL and the “CARBON DIOXIDE” value (120 h, time 5 day) was 27 mmol/L. The CHLORIDE (120 h, time 5 day) was 105 MEQ/L, the CHOLESTEROL (120 h, time 5 day) was 70.5 mg/dL and the “CREATINE PHOSPHOKINASE” value (120 h, time 5 day) was 206 u/L. For the same molecule, the CREATININE (120 h, time 5 day) was 0.25 mg/dL, the GLUCOSE (120 h, time 5 day) was 163 mg/dL and the “LACTATE DEHYDROGENASE” value (120 h, time 5 day) was 87.5 u/L. It also gave an LIPASE (120 h, time 5 day) of 20 u/L, a PHOSPHORUS (120 h, time 5 day) of 12.6 mg/dL and a POTASSIUM (120 h, time 5 day) of 6.1 MEQ/L. For the same molecule, the SODIUM (120 h, time 5 day) was 148 MEQ/L, the “TOTAL BILIRUBIN” value (120 h, time 5 day) was 0.55 mg/dL and the “TOTAL PROTEIN” value (120 h, time 5 day) was 6.5 G/DL. The “URIC ACID” value (120 h, time 5 day) was 2.05 mg/dL, the BASOPHIL ([…], time 14 day) was 0.8% and the EOSINOPHIL ([…], time 14 day) was 0.2%. For the same molecule, the “ERYTHROCYTE COUNT” value ([…], time 14 day) was 6.87 x10E6/uL, the HEMATOCRIT ([…], time 14 day) was 42.85% and the HEMOGLOBIN ([…], time 14 day) was 14.03 G/DL. The “LEUKOCYTE COUNT” value ([…], time 14 day) was 14.3 x10E3/uL, the LYMPHOCYTE ([…], time 14 day) was 83.92% and the “MEAN CORPUSCULAR HEMOGLOBIN” value ([…], time 14 day) was 20.45 pg. For the same molecule, the “MEAN CORPUSCULAR HEMOGLOBIN CONCENTRATION” value ([…], time 14 day) was 32.83 G/DL, the “MEAN CORPUSCULAR VOLUME” value ([…], time 14 day) was 62.4 fL and the MONOCYTE ([…], time 14 day) was 1.9%. The NEUTROPHIL ([…], time 14 day) was 11.55%, the “PLATELET COUNT” value ([…], time 14 day) was 1262 x10E3/uL and the “ALANINE AMINOTRANSFERASE” value ([…], time 14 day) was 50 u/L. For the same molecule, the ALBUMIN ([…], time 14 day) was 4.45 G/DL, the “ALKALINE PHOSPHATASE” value ([…], time 14 day) was 349.75 u/L and the “ASPARTATE AMINOTRANSFERASE” value ([…], time 14 day) was 70.25 u/L. The “BLOOD UREA NITROGEN” value ([…], time 14 day) was 16.25 mg/dL, the “CARBON DIOXIDE” value ([…], time 14 day) was 30.25 mmol/L and the CHLORIDE ([…], time 14 day) was 103.5 MEQ/L. For the same molecule, the CHOLESTEROL ([…], time 14 day) was 84.5 mg/dL, the “CREATINE PHOSPHOKINASE” value ([…], time 14 day) was 254.25 u/L and the CREATININE ([…], time 14 day) was 0.4 mg/dL. The GLUCOSE ([…], time 14 day) was 161.5 mg/dL, the “LACTATE DEHYDROGENASE” value ([…], time 14 day) was 60.75 u/L and the LIPASE ([…], time 14 day) was 17.25 u/L. It also gave a PHOSPHORUS ([…], time 14 day) of 12.07 mg/dL, a POTASSIUM ([…], time 14 day) of 6.7 MEQ/L and an SODIUM ([…], time 14 day) of 150.25 MEQ/L. The “TOTAL BILIRUBIN” value ([…], time 14 day) was 0.55 mg/dL, the “TOTAL PROTEIN” value ([…], time 14 day) was 6.97 G/DL and the “URIC ACID” value ([…], time 14 day) was 1 mg/dL.
